Format in all cases: biochemical
Test [1] concerns the target T1, Human hemopoietic cell protein-tyrosine kinase (HCK) (Homo sapiens, UniProt P08631).
T1 construct: GST (N); made in house; host or cells: Sf9 insect cells (baculovirus)
Put plainly: Alphascreen tyrosine kinase enzyme assay, HCK kinase domain. The settings on record: read-out: FMS, FLT3, or HCK IC50_nM (HCK). As for the experimental part:
(§1) For screening purposes, compounds (in 100% DMSO) were warmed at 37 degrees for at least 20 minutes before use. A […] stock was initially made in assay buffer, where the final concentration of DMSO was 0.3%. The stocks were then diluted in 384 well Optiplates (Packard) where the final concentration of the compound was […].
The kinase domain of Human hemopoietic cell protein-tyrosine kinase (HCK) between L212 and P505 (accession number M16592) was amplified from U937 mRNA using the polymerase chain reaction.
The PCR product was cloned into the pDest20 destination vector (Gibco). The plasmid was then transformed into competent […] cells (Gibco) to produce a HCK bacmid. The recombinant baculovirus was prepared via Sf9 insect cell transfection with bacmid DNA.
Baculovirus preparations from each of the constructs were infected into either one or five liters of Sf9 cells (Invitrogen) grown in SF-900 medium (Invitrogen) to a cell density of approximately 1-2×10^6 cells/ml. Cells were infected with virus at a MOI of 0.8-3.0. Cells were harvested and lysed. Tyrosine kinase domains were purified by affinity chromatography on a glutathione-agarose column (Scientifix Pty. Ltd. catalog #: GSH-200). […]
(In general: Alpha assays give light when donor and acceptor beads are brought close together.)

A further test concerns the target T2, human CSF1-R (FMS) (Homo sapiens, UniProt P07333).
T2 construct: from codon I553 to Q961; GST (N); made in house; host or cells: Sf9 insect cells (baculovirus)
T2 sequence (P07333 553-961): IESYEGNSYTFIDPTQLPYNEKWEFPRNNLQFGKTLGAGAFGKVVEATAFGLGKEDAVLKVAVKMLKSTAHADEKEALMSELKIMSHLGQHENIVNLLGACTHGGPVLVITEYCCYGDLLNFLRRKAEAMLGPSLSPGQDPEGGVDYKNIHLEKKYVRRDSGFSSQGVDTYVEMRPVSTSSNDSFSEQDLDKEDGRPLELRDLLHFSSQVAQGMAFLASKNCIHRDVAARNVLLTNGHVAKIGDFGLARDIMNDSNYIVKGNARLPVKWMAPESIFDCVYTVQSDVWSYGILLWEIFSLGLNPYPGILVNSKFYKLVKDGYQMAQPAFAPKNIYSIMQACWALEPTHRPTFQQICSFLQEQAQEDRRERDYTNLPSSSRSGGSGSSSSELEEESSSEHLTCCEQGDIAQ
Put plainly: Alphascreen tyrosine kinase enzyme assay, CSF-1R (FMS) kinase domain. Particulars: read-out: FMS, FLT3, or HCK IC50_nM (FMS). The procedure:
as §1
The kinase domain of human CSF1-R from codon I553 to Q961 was cloned into the pDest20 expression vector (Invitrogen). The CSF1-R plasmid was then transformed into competent DH10Bac cells (Gibco), and the recombinant baculovirus produced prepared for transfection into Sf9 insect cells.
(§2) Baculovirus preparations from each of the constructs were infected into either one or five liters of Sf9 cells (Invitrogen) grown in SF-900 medium (Invitrogen) to a cell density of approximately 1-2×10^6 cells/ml. Cells were infected with virus at a MOI of 0.8-3.0. Cells were harvested and lysed. Tyrosine kinase domains were purified by affinity chromatography on a glutathione-agarose column (Scientifix Pty. Ltd. catalog #: GSH-200).
(§3) Kinase assays were performed in 384 well Optiplates (Packard) using an Alphascreen Protein Tyrosine Kinase PY100 detection kit The compounds were pre-incubated with affinity purified PTK domain in the presence of phosphotyrosine assay buffer (10 mM HEPES, pH 7.5, 100 mM MgCl2, 25 mM NaCl, […] and 0.1% Tween 20) for 20 minutes. The compounds were then incubated with substrate in the presence of ATP. The substrate used was susbtrate-1 with the sequence biotin-EGPWLEEEEEAYGWMDF-NH2 [SEQ. ID. NO. 13] (final concentration […]). For HCK 80 μm ATP was used and incubated for 60 minutes. Alphascreen phosphotyrosine acceptor beads followed by streptavidin donor beads at a concentration of 1/100 in stop buffer were added to each well under subdued light and incubated for 2-3 hours., The Alphascreen plates were read on a Packard Fusion Alpha instrument.

Another test concerns the target T3, Bmx(h) (Homo sapiens, UniProt P51813).
T3 construct: purchased Upstate Biotechnology (Dundee, UK), KinaseProfiler service
T3 sequence (P51813 1-675): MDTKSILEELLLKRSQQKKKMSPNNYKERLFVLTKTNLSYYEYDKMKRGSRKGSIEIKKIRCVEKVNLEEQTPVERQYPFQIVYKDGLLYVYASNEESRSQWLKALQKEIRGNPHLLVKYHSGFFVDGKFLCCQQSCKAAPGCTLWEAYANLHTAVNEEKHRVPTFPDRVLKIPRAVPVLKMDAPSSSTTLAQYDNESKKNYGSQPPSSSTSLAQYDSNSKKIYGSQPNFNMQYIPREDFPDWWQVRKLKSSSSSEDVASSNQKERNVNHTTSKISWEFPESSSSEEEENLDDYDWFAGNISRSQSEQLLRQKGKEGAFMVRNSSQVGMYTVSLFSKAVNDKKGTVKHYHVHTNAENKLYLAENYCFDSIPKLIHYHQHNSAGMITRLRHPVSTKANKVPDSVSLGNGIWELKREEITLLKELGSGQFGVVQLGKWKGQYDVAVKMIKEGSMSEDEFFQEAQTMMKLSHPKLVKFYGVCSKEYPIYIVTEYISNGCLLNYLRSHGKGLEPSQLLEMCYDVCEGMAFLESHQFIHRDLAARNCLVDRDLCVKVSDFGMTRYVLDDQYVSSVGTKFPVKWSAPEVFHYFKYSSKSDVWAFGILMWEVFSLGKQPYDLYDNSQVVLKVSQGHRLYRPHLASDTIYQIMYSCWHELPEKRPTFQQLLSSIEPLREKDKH
The test can be described thus: Upstate KinaseProfiler enzyme assay, Bmx. The settings on record: 500 nM compound; read-out: Percent inhibition at 500 nM Bmx(h). The procedure: (§4) Further enzyme assays were conducted at Upstate Biotechnology (Dundee, UK) in the KinaseProfiler™ Assay system.
(§5) The general protocol is as follows. All kinases are pre-diluted to a 10× working concentration prior to addition into the assay. The composition of the dilution buffer for the kinases is 20 mM MOPS pH 7.0, 1 mM EDTA, 0.1% β-mercaptoethanol, 0.01% Brij-35, 5% glycerol, 1 mg/ml BSA. All substrates are dissolved and diluted to working stocks in de-ionised water.

The target in another test is T4, Blk(m) (Mus musculus, UniProt P16277).
T4 construct: purchased Upstate Biotechnology (Dundee, UK), KinaseProfiler service
Put plainly: Upstate KinaseProfiler enzyme assay, Blk. The settings on record: 500 nM compound; read-out: Percent inhibition at 500 nM Blk(m). The procedure:
as §4, §5

The target of the next test is T5, KDR(h) (Homo sapiens, UniProt P35968).
T5 construct: purchased Upstate Biotechnology (Dundee, UK), KinaseProfiler service
The test can be described thus: Upstate KinaseProfiler enzyme assay, KDR. The settings on record: 500 nM compound; read-out: Percent inhibition at 500 nM KDR(h). The procedure: as §4, §5

The next test addresses T6, BTK(h) (Homo sapiens, UniProt Q06187).
T6 construct: purchased Upstate Biotechnology (Dundee, UK), KinaseProfiler service
Put plainly: Upstate KinaseProfiler enzyme assay, BTK. The settings on record: 500 nM compound; read-out: Percent inhibition at 500 nM BTK(h). As for the experimental part: as §4, §5

The target of a further test is T7, human JAK3 (Homo sapiens, UniProt P52333).
T7 construct: The kinase domain of human JAK3 was amplified; GST (N); made in house; host or cells: Sf9 insect cells (baculovirus)
Put plainly: Alphascreen tyrosine kinase enzyme assay, JAK3 kinase domain. Particulars: read-out: JAK3 IC50_nM. As for the experimental part:
as §1
The kinase domain of human JAK3 was amplified from U937mRNA using the polymerase chain reaction with the following primers: […]
The JAK3 PCR products were cloned into the pDest20 destination expression vector (Gibco). The JAK3 plasmid was then transformed into competent DH10Bac cells (Gibco), and the recombinant baculovirus was prepared via Sf9 insect cell transfection.
as §2, §3

The target in another test is T8, Flt 1(h) (Homo sapiens, UniProt P17948).
T8 construct: purchased Upstate Biotechnology (Dundee, UK), KinaseProfiler service
The test can be described thus: Upstate KinaseProfiler enzyme assay, Flt 1. The settings on record: 500 nM compound; read-out: Percent inhibition at 500 nM Flt 1(h). As for the experimental part:
as §4, §5

For a further test, the target named is T9, Flt 4(h) (Homo sapiens, UniProt P35916).
T9 construct: purchased Upstate Biotechnology (Dundee, UK), KinaseProfiler service
Put plainly: Upstate KinaseProfiler enzyme assay, Flt 4. Particulars: 500 nM compound; read-out: Percent inhibition at 500 nM Flt 4(h). As for the experimental part:
as §4, §5

A further test deals with T10, human JAK2 (Homo sapiens, UniProt O60674).
T10 construct: The kinase domain of human JAK2 was amplified; GST (N); made in house; host or cells: Sf9 insect cells (baculovirus)
Put plainly: Alphascreen tyrosine kinase enzyme assay, JAK2 kinase domain. The settings on record: read-out: JAK2 IC50_nM. As for the experimental part:
as §1
The kinase domain of human JAK2 was amplified from U937mRNA using the polymerase chain reaction with the following primers: […]
The JAK2 PCR products were cloned into the pDest20 destination vector (Gibco). The JAK2 plasmid was then transformed into competent DH10Bac cells (Gibco), and the recombinant baculovirus was prepared via Sf9 insect cell transfection.
as §2, §3

Broadly, the inhibition is how much of the control response was suppressed.

A value given as a limit tells only on which side of the number the result lay.

T5 sequence (P35968 20-1356): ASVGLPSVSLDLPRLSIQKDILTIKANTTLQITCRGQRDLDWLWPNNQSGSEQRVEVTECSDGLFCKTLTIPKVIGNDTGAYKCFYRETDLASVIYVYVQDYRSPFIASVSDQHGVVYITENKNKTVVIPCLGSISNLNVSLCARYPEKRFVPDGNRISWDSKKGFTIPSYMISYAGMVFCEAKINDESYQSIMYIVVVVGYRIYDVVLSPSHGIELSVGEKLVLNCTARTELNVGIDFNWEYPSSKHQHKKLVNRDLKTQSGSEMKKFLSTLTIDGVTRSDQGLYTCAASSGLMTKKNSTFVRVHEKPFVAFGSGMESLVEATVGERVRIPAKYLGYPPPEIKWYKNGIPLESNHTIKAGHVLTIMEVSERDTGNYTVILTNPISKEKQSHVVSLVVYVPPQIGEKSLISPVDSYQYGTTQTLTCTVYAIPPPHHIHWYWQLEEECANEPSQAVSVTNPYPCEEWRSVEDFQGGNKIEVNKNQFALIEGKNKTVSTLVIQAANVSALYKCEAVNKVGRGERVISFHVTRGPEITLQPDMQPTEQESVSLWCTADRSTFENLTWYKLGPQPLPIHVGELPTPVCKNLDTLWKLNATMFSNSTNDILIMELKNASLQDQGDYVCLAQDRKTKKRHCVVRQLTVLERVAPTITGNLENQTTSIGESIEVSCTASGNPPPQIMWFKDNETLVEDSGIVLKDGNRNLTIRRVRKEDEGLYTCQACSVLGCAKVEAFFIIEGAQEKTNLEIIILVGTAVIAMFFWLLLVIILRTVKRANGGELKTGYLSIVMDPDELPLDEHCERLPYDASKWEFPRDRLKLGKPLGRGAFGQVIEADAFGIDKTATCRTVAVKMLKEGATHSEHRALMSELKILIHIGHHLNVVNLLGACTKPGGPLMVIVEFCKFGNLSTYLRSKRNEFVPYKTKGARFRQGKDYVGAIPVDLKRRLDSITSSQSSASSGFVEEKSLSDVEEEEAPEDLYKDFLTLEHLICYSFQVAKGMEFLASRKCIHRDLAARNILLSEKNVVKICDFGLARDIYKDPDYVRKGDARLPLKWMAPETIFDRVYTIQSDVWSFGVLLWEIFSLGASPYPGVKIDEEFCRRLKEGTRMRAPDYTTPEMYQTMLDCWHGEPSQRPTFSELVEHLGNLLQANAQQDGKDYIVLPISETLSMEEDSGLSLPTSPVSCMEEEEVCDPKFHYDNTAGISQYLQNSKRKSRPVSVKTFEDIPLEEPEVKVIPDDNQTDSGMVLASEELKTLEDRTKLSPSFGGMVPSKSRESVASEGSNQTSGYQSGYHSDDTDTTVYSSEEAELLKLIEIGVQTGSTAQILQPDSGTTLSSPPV
T4 sequence (P16277 whole entry): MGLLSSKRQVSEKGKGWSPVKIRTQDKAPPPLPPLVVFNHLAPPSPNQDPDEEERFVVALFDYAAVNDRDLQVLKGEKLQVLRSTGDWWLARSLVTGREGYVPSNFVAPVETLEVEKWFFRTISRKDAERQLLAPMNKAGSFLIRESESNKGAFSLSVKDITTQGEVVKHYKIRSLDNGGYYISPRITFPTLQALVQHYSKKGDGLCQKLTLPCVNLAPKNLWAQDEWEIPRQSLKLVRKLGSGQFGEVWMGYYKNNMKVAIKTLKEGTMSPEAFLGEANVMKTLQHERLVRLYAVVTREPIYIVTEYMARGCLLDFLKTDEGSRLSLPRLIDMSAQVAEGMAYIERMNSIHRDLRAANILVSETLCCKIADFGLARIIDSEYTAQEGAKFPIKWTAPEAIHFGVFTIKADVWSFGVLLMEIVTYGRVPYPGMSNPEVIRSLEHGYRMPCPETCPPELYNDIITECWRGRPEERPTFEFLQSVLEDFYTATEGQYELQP
T6 sequence (Q06187 whole entry): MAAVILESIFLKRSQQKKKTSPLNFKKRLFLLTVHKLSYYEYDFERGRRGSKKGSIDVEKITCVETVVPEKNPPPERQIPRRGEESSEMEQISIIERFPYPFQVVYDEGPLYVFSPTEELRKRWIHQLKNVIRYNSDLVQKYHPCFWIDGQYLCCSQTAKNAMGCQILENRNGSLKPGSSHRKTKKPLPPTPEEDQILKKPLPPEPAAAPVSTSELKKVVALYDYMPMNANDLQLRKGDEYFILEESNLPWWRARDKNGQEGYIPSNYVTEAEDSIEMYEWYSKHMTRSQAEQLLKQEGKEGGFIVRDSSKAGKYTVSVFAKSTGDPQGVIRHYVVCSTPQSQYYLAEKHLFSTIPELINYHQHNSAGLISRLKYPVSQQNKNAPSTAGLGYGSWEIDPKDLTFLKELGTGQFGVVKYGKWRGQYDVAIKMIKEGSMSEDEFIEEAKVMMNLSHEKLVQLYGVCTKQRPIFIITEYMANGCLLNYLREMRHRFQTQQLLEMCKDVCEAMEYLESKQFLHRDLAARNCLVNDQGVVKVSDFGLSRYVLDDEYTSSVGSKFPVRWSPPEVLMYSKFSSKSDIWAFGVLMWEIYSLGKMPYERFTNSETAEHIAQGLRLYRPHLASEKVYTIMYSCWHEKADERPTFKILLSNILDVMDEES
T7 sequence (P52333 822-1111 limits assumed): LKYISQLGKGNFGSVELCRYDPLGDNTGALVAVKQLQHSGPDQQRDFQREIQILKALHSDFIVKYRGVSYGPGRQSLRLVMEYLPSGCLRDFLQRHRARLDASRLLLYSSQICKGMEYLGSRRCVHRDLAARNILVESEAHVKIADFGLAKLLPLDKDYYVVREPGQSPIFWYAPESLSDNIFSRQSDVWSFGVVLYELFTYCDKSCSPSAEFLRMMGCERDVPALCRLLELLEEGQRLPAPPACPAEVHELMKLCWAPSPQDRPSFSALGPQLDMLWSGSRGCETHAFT
T9 sequence (P35916 25-1363): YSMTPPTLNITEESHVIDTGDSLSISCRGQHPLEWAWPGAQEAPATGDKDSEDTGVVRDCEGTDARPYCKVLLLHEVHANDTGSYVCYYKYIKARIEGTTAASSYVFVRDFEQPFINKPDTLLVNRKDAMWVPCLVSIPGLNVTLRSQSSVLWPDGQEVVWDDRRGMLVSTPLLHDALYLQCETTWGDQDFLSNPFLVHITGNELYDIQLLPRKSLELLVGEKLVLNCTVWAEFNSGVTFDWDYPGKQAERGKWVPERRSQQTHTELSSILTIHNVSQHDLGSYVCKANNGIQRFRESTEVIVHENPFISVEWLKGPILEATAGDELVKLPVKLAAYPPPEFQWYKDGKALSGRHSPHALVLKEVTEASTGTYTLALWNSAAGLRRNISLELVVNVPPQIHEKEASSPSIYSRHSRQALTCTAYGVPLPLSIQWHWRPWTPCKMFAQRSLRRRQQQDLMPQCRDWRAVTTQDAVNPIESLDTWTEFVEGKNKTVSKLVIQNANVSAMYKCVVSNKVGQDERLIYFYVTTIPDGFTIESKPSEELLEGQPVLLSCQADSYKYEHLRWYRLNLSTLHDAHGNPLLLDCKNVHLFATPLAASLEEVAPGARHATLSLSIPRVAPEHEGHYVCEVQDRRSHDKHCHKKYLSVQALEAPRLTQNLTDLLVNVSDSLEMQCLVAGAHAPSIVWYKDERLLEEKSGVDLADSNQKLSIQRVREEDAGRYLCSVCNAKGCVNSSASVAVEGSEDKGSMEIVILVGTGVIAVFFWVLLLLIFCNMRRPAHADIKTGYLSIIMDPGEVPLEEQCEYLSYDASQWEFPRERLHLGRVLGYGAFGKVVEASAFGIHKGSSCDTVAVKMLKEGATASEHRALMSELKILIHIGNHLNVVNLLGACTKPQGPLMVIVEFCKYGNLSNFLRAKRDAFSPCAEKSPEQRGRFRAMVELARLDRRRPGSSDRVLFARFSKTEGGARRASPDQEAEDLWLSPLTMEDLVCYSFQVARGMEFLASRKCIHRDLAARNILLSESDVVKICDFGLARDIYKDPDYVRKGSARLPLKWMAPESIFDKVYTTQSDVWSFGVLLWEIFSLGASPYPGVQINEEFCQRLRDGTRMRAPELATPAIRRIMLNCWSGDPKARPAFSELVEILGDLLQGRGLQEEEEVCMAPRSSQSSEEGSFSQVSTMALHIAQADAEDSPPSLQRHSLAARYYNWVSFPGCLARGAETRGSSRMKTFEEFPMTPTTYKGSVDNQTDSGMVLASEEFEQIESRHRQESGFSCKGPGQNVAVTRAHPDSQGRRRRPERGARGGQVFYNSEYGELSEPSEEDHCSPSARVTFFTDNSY
T10 sequence (O60674 849-1124 limits assumed): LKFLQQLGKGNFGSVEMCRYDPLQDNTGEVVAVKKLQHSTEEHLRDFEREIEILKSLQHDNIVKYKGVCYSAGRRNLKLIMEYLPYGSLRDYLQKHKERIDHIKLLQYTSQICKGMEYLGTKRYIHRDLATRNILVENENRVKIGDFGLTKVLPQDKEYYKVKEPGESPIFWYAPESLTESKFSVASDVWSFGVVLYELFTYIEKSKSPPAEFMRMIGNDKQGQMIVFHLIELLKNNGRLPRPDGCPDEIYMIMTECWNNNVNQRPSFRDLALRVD
T1 sequence (P08631 233-526): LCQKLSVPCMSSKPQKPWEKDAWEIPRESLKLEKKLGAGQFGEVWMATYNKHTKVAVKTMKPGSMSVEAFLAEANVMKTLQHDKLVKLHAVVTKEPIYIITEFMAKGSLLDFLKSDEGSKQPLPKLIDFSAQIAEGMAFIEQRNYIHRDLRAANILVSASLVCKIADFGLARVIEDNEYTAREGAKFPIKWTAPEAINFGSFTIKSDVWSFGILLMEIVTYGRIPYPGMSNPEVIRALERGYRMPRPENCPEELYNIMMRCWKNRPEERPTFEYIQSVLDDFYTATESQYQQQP

For the compound `Oc1cccc(Sc2ccnc(Nc3ccc(N4CCOCC4)cc3)n2)c1` [Compound 38, 3-(2-(4-morpholinophenylao)pyrimidin-4-ylthio)phenol], the IC50 (in test [1]; at human CSF1-R (FMS)) was less than 0.5 µM each time.

For `C=CC(=O)Nc1cccc(Sc2ccnc(Nc3cc(OC)c(OC)c(OC)c3)n2)c1` [Compound 51, N-(3-(2-(3,4,5-trimethoxyphenylamino)pyrimidin-4-ylthio)phenyl)acrylamide], the inhibition at 0.5 µM was 100% at Bmx(h), 29% at Blk(m), 100% at KDR(h) and 100% at BTK(h).

Consider `C/C=C/C(=O)Nc1ccc(Sc2ccnc(Nc3ccc(N4CCOCC4)cc3)n2)cc1` [Compound 59, (E)-N-(4-(2-(4-morpholinophenylao)pyrimidin-4-ylthio)phenyl)but-2-enamide], for which the inhibition at 0.5 µM at Bmx(h), at Blk(m), on KDR(h) and on BTK(h) was 100% in each case.

For `C=CC(=O)Nc1ccc(Sc2ccnc(Nc3cc(OC)c(OC)c(OC)c3)n2)cc1` [Compound 71, N-(4-(2-(3,4,5-trimethoxyphenylao)pyrimidin-4-ylthio)phenyl)acrylamide], the inhibition at 0.5 µM at Bmx(h) came out at 36%; on Blk(m) it was 49%; at KDR(h), 90%; on BTK(h), 27%.

For the compound `C=C(C)C(=O)Nc1cccc(Sc2ccnc(Nc3ccc(N4CCOCC4)cc3)n2)c1` [Compound 115, N-(3-(2-(4-morpholinophenylao)pyrimidin-4-ylthio)phenyl)methacrylamide], the inhibition at 0.5 µM on Bmx(h), on Blk(m), at KDR(h) and at BTK(h) was 100% each time.

Take `C=CC(=O)N1CCCc2cc(Sc3nc(Nc4ccc(N5CCOCC5)cc4)ncc3C)ccc21` [Compound 168, 1-(6-(5-methyl-2-(4-morpholinophenylao)pyrimidin-4-ylthio)-3,4-dihydroquinolin-1(2H)-yl)prop-2-en-1-one]: the inhibition at 0.5 µM amounted to 92% at Bmx(h); 98% at Blk(m); 66% at Flt 1(h); 99% on Flt 4(h); 96% on KDR(h). Besides, the IC50 is less than 0.1 µM at human JAK3 and greater than 1 µM at human JAK2.

For `C=CC(=O)N1CCc2cc(Sc3nc(Nc4ccc(N5CCOCC5)cc4)ncc3C)ccc21` [Compound 170, 1-(5-(5-methyl-2-(4-morpholinophenylao)pyrimidin-4-ylthio)indolin-1-yl)prop-2-en-1-one], the inhibition at 0.5 µM at Bmx(h) came out at 97%; at Blk(m) it was 96%; on Flt 1(h) it was 74%; at Flt 4(h), 99%; on KDR(h), 97%. Further, the IC50 at human JAK3 was less than 0.1 µM; at human JAK2, greater than 1 µM.

On to `O=C(CCNc1ccccc1)Nc1ccc(Sc2ccnc(Nc3ccccc3)n2)cc1` [Compound 351, 3-(phenylao)-N-(4-(2-(phenylao)pyrimidin-4-ylthio)phenyl)propanamide], for which the inhibition at 0.5 µM at Bmx(h), on Blk(m), on KDR(h) and on BTK(h) was 100% in each case.

These data come from patent publication US8846704B2, “Thiopyrimidine-based compounds and uses thereof” (YM Biosciences Austraila Pty Ltd, priority 2007, dated 2014).
